# Measured values: ChEMBL document CHEMBL4330136, “Shape-based virtual screen for the discovery of novel CDK8 inhibitor chemotypes” (Bioorg Med Chem Lett, 2019)
# Experiments:
# CDK8/Cyclin C = CDK8/Cyclin C (Homo sapiens, UniProt P49336); assay: Inhibition of kinase tracer 236 binding to recombinant full length His-tagged human CDK8/CycC expressed in baculovirus expression system preincubated for 20 mins followed by tracer addition and measured after 2 hrs by FRET-based LanthaScreen Eu kinase binding assay
# HCT-116 [1] = assay: Cell cycle arrest in human HCT116 cells assessed as accumulation at G1-phase at 15 uM after 12 to 16 hrs by propidium iodide staining based flow cytometry (reference value: 30.99%); assay type: functional
# SW-620 [2] = assay: Cell cycle arrest in human SW620 cells assessed as accumulation at G1-phase at 30 uM after 12 to 16 hrs by propidium iodide staining based flow cytometry (reference value: 24.69%); assay type: functional
# HCT-116 [3] = assay: Cell cycle arrest in human HCT116 cells assessed as accumulation at G2-phase at 5 uM after 12 to 16 hrs by propidium iodide staining based flow cytometry (reference value: 13.28%); assay type: functional
# SW-620 [4] = assay: Cell cycle arrest in human SW620 cells assessed as accumulation at S-phase at 5 uM after 12 to 16 hrs by propidium iodide staining based flow cytometry (reference value: 53.91%); assay type: functional
# SW-620 [5] = assay: Growth inhibition of human SW620 cells after 72 hrs by Celltiter-glo assay; assay type: functional, cell-based; conditions: SW-620, 72 h
# SW-620 [6] = assay: Cell cycle arrest in human SW620 cells assessed as accumulation at G2-phase at 15 uM after 12 to 16 hrs by propidium iodide staining based flow cytometry (reference value: 19.02%); assay type: functional
# HCT-116 [7] = assay: Cell cycle arrest in human HCT116 cells assessed as accumulation at G2-phase at 15 uM after 12 to 16 hrs by propidium iodide staining based flow cytometry (reference value: 13.28%); assay type: functional
# SW-620 [8] = assay: Cell cycle arrest in human SW620 cells assessed as accumulation at G2-phase at 30 uM after 12 to 16 hrs by propidium iodide staining based flow cytometry (reference value: 19.02%); assay type: functional
# HCT-116 [9] = assay: Cell cycle arrest in human HCT116 cells assessed as accumulation at G1-phase at 5 uM after 12 to 16 hrs by propidium iodide staining based flow cytometry (reference value: 30.99%); assay type: functional
# HCT-116 [10] = assay: Cell cycle arrest in human HCT116 cells assessed as accumulation at S-phase at 15 uM after 12 to 16 hrs by propidium iodide staining based flow cytometry (reference value: 55.74%); assay type: functional
# SW-620 [11] = assay: Cell cycle arrest in human SW620 cells assessed as accumulation at G1-phase at 5 uM after 12 to 16 hrs by propidium iodide staining based flow cytometry (reference value: 24.69%); assay type: functional
# SW-620 [12] = assay: Cell cycle arrest in human SW620 cells assessed as accumulation at S-phase at 15 uM after 12 to 16 hrs by propidium iodide staining based flow cytometry (reference value: 53.91%); assay type: functional
# SW-620 [13] = assay: Cell cycle arrest in human SW620 cells assessed as accumulation at G1-phase at 15 uM after 12 to 16 hrs by propidium iodide staining based flow cytometry (reference value: 24.69%); assay type: functional
# HCT-116 [14] = assay: Cell cycle arrest in human HCT116 cells assessed as accumulation at G1-phase at 30 uM after 12 to 16 hrs by propidium iodide staining based flow cytometry (reference value: 30.99%); assay type: functional
# HCT-116 [15] = assay: Growth inhibition of human HCT116 cells after 72 hrs by Celltiter-glo assay; assay type: functional, cell-based; conditions: HCT-116, 72 h
# HCT-116 [16] = assay: Cell cycle arrest in human HCT116 cells assessed as accumulation at G2-phase at 30 uM after 12 to 16 hrs by propidium iodide staining based flow cytometry (reference value: 13.28%); assay type: functional
# HCT-116 [17] = assay: Cell cycle arrest in human HCT116 cells assessed as accumulation at S-phase at 30 uM after 12 to 16 hrs by propidium iodide staining based flow cytometry (reference value: 55.74%); assay type: functional
# SW-620 [18] = assay: Cell cycle arrest in human SW620 cells assessed as accumulation at S-phase at 30 uM after 12 to 16 hrs by propidium iodide staining based flow cytometry (reference value: 53.91%); assay type: functional
# SW-620 [19] = assay: Cell cycle arrest in human SW620 cells assessed as accumulation at G2-phase at 5 uM after 12 to 16 hrs by propidium iodide staining based flow cytometry (reference value: 19.02%); assay type: functional
# HCT-116 [20] = assay: Induction of G1-phase to S-phase transition arrest in human HCT116 cells after 12 to 16 hrs by propidium iodide staining based flow cytometry; assay type: functional, cell-based
# HCT-116 [21] = assay: Cell cycle arrest in human HCT116 cells assessed as accumulation at S-phase at 5 uM after 12 to 16 hrs by propidium iodide staining based flow cytometry (reference value: 55.74%); assay type: functional
# CDK8/Cyclin C, sequence (P49336 whole entry): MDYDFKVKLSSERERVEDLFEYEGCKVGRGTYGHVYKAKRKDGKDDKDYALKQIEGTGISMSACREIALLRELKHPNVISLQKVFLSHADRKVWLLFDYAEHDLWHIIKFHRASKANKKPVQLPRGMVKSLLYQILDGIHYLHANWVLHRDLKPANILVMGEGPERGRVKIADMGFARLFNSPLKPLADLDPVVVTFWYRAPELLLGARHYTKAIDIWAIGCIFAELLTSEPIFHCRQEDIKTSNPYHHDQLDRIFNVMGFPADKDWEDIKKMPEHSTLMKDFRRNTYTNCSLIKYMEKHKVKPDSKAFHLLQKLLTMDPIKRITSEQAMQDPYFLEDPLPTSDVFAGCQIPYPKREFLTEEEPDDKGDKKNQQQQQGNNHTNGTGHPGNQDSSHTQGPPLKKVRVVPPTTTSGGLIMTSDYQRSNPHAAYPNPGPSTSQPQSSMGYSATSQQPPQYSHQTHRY
# CDK8/Cyclin C, sequence (P24863 whole entry, further chain): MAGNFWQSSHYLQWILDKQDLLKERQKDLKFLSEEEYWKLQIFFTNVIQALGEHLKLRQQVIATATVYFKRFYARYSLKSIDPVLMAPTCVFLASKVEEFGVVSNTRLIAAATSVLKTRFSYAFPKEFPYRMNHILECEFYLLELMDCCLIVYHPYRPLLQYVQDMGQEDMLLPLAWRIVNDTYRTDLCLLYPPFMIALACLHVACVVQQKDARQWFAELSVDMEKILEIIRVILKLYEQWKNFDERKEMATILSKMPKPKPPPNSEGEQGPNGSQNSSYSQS
IC50 (CDK8/Cyclin C),IC50 (SW-620 [5]),IC50 (HCT-116 [15]),Compound,Activity (HCT-116 [1]),Activity (SW-620 [2]),Activity (HCT-116 [3]),Activity (SW-620 [4]),Activity (SW-620 [6]),Activity (HCT-116 [7]),Activity (SW-620 [8]),Activity (HCT-116 [9]),Activity (HCT-116 [10]),Activity (SW-620 [11]),Activity (SW-620 [12]),Activity (SW-620 [13]),Activity (HCT-116 [14]),Activity (HCT-116 [16]),Activity (HCT-116 [17]),Activity (SW-620 [18]),Activity (SW-620 [19]),also measured
2.9 µM,,,COc1ccc(CNc2ncnc3scc(-c4ccccc4)c23)cc1,,,,,,,,,,,,,,,,,,
1.3 µM,25 µM,4.5 µM,COc1ccc(C(=O)c2cnc3ccc(F)cc3c2N2CCCCC2)cc1,47.09%,41.68%,13.13%,54.27%,17.69%,13.92%,16.94%,35.24%,38.98%,25.08%,51.89%,28.05%,62.66%,13.86%,23.48%,38.54%,18.15%,Activity (HCT-116 [20]): Dose-dependent effect; Activity (HCT-116 [21]): 51.63%
,52.4 µM,70.2 µM,Cc1n[nH]c2ncc(C(=O)N3CCC[C@H]3c3ccc(Cl)cc3)cc12,47.08%,34.8%,21.76%,56.44%,12.35%,24.8%,11.66%,48.91%,27.98%,27.52%,54.86%,30.31%,50.47%,27.16%,22.36%,50.77%,13.83%,Activity (HCT-116 [21]): 29.34%
